Source: patent publication US20240228507A1, “GREEN SOLVENTS FOR CHEMICAL REACTIONS” (ECOLE POLYTECHNIQUE FÉDÉRALE DE LAUSANNE (EPFL), priority 2021, published 2024)

Tests used:
[1] = Kamlet-Abboud-Taft solvatochromic parameters (dye absorption spectra); type: physicochemical; conditions: for Kamlet-Taft Parameters Π* / Kamlet-Taft Parameters α / Kamlet-Taft Parameters β: Table 1a; for Kamlet-Abboud-Taft α / Kamlet-Abboud-Taft β / Kamlet-Abboud-Taft π: Table 1c; for Kamlet-Taft Π* / Kamlet-Taft α / Kamlet-Taft β: Table 4
Description: Determination of the Kamlet-Abboud-Taft parameters was based on the absorption spectrum of two dyes (N,N-diethyl-4-nitroaniline and 4-nitroaniline) in different solvents, that allow calculating corresponding values using known procedures (P. G. Jessop, D. A. Jessop, D. Fu and L. Phan, Green Chem., 2012, 14, 1245-1259).

[2] = Maximum absorbance of Nile Red dye in the solvent; type: physicochemical
Method: The absorbance spectra of 4-nitroaniline dye (cf. FIG. 10a), N,N-diethyl-4-nitroaniline dye (cf. FIG. 10b) as well as of Nile Red dye (cf. FIG. 10c) in the compounds 1, 3, 4 and 24 of claim 13 as well as in DMSO were measured. Nile Red absorbance is dependent on polarity and acidity, but as acidity is 0 in the case of aprotic solvents, the value is only polarity dependent. This differs from π*, which is both polarity and polarizability dependent. The maximum absorbance of Nile Red in 1, 3, 4 and 24 was measured to be 543, 536, 534.5 and 535 nm respectively. […] Values for 3, 4 and 24 are similar to conventional medium polarity aprotic solvents such as dichloromethane (535.2 nm) and acetonitrile (531.6 nm).
The Nile red value for DEX:PG is 553 nm, indicating similar chemical behavior to Methanol (550 nm) and Ethanolamine (557 nm).

Flash point = type: physicochemical
[3] = Stability of DFX under basic conditions (GC-FID/GC-MS, colour change); type: physicochemical; conditions: Pyridine and KOAc
Method: To assess DFX stability under basic conditions, we tested a series of organic and inorganic bases at 80° C. and 110° C. for maximum 48 h (Table 6). Visual color change compared to a blank solution of pure DFX indicated some reactions were occurring. After 0.5 h, 24 h, 48 h of exposure, the samples were injected in GC-FID and GC-MS and the area of DFX was compared with the one in blank sample using decane as the internal standard. As a result of this experiment, we identified some potential limitations of this emerging solvent. Specifically, inorganic bases such as K2CO3, NaOH, CsCO3 led to the highest extent of degradation (maximum 21% after 48 h). Triethylamine (NEt3) caused less than 5% of degradation, but led to the formation of dark solution as well as K2CO3, NaOH, CsCO3. Probably, impurities existing in DFX (95% pure) also contribute to a color change as they could interact with bases.

[4] = Miscibility with different solvents; type: physicochemical; set-up: key: “*” indicating—not miscible; conditions: Table 1d; blank cell = miscible
[5] = Stability under acidic conditions; type: physicochemical

C1COCCO1 [1,4-dioxane]
Kamlet-Taft Parameters Π* [1]: 0.55
Kamlet-Taft Parameters α [1]: 0.00
Kamlet-Taft Parameters β [1]: 0.37
Kamlet-Abboud-Taft α [1]: 0
Kamlet-Abboud-Taft β [1]: 0.37
Kamlet-Abboud-Taft π [1]: 0.55

CC(C)=O [Acetone, acetone]
Kamlet-Taft Π* [1]: 0.71
Kamlet-Taft α [1]: 0.08
Kamlet-Taft β [1]: 0.48

CC#N [Acetonitrile, acetonitrile]
Kamlet-Taft Π* [1]: 0.8
Kamlet-Taft α [1]: 0.35
Kamlet-Taft β [1]: 0.37
maximum absorbance of Nile Red [2]: 531.6 nm

COC1CCCC1 [CPME, cyclopentyl methyl ether]
Flash point (Flash point): −1 °C

C1OC[C@H]2O[C@@H]3OCO[C@@H]3[C@H]2O1 [Compound 1, Diformylxylose]
effect on stability [3]: didn't show any significant effect
melting point: 48 °C

CC1CCCO1 (centres unmarked) [Compound 2-Me-THF]
Flash point (Flash point): −10 °C

CC1CCCO1 (centres unmarked) [Compound 2-MeTHF, 2-methyltetrahydrofuran]
Kamlet-Abboud-Taft α [1]: 0
Kamlet-Abboud-Taft β [1]: 0.58
Kamlet-Abboud-Taft π [1]: 0.53

CC1OC[C@H]2O[C@@H]3OC(C)O[C@@H]3[C@H]2O1 (some centres unmarked) [Compound 2]
melting point: 60 °C

CCC1OC[C@H]2O[C@@H]3OC(CC)O[C@@H]3[C@H]2O1 (some centres unmarked) [Compound 3]
Kamlet-Abboud-Taft α [1]: 0
Kamlet-Abboud-Taft β [1]: 0.63
Kamlet-Abboud-Taft π [1]: 0.68
melting point: 34 °C
maximum absorbance of Nile Red [2]: 536 nm

CC(C)C1OC[C@H]2O[C@@H]3OC(C(C)C)O[C@@H]3[C@H]2O1 (some centres unmarked) [Compound 4]
Kamlet-Abboud-Taft α [1]: 0
Kamlet-Abboud-Taft β [1]: 0.51
Kamlet-Abboud-Taft π [1]: 0.63
melting point: 31 °C
maximum absorbance of Nile Red [2]: 534.5 nm

CC(C)(C)C1OC[C@H]2O[C@@H]3OC(C(C)(C)C)O[C@@H]3[C@H]2O1 (some centres unmarked) [Compound 5]
melting point: 120 °C

CC1(C)OC[C@H]2O[C@@H]3OC(C)(C)O[C@@H]3[C@H]2O1 [Compound 11]
melting point: 43 °C

COC(=O)C1OC[C@H]2O[C@@H]3OC(C(=O)OC)O[C@@H]3[C@H]2O1 (some centres unmarked) [Compound 14]
melting point: 83 °C

CCCC1OC[C@H]2O[C@@H]3OC(CCC)O[C@@H]3[C@H]2O1 (some centres unmarked) [Compound 24]
Kamlet-Abboud-Taft α [1]: 0
Kamlet-Abboud-Taft β [1]: 0.56
Kamlet-Abboud-Taft π [1]: 0.65
Miscibility with Water [4]: *
melting point: 24.5 °C
maximum absorbance of Nile Red [2]: 535 nm

C1CCCCC1 [Cyclohexane, cyclohexane]
Kamlet-Abboud-Taft α [1]: 0
Kamlet-Abboud-Taft β [1]: 0
Kamlet-Abboud-Taft π [1]: 0

O=C1CC[C@H]2CO[C@@H]1O2 [Cyrene]
Kamlet-Taft Parameters Π* [1]: 0.93
Kamlet-Taft Parameters α [1]: 0.00
Kamlet-Taft Parameters β [1]: 0.61
stability under acidic conditions ([5]; 95° C. or 70° C., 0.8M HCl, 15 min): extensive degradation
Flash point (Flash point): 108 °C

CCCC1OCC2OC3OC(CCC)OC3C2O1 (centres unmarked) [DBX, Dibutylxylose]
sensitivity to strong acids (visual, orange-colored solution) [5]: showed sensitivity to strong acids

CC(C)C1OCC2OC3OC(C(C)C)OC3C2O1 (centres unmarked) [DIBX, Diisobutylxylose]
sensitivity to strong acids (visual, orange-colored solution) [5]: showed sensitivity to strong acids

CN(C)C=O [DMF, N,N-dimethylformamide]
maximum absorbance of Nile Red [2]: 541 nm

C[S+](C)[O-] [DMSO, dimethyl sulfoxide]
Kamlet-Taft Parameters Π* [1]: 1.00
Kamlet-Taft Parameters α [1]: 0.00
Kamlet-Taft Parameters β [1]: 0.74

CC(C)(C)C1OCC2OC3OC(C(C)(C)C)OC3C2O1 (centres unmarked) [DNPX, Dineopentylxylose]
sensitivity to strong acids (visual, orange-colored solution) [5]: showed sensitivity to strong acids

CCC1OCC2OC3OC(CC)OC3C2O1 (centres unmarked) [DPX, Dipropylxylose]
sensitivity to strong acids (visual, orange-colored solution) [5]: showed sensitivity to strong acids

NCCO [Ethanolamine]
maximum absorbance of Nile Red [2]: 557 nm

O=C1OCCO1 [Ethylene carbonate]
Kamlet-Taft Parameters Π* [1]: 0.99
Kamlet-Taft Parameters α [1]: 0.00
Kamlet-Taft Parameters β [1]: 0.32

CC1CCC(=O)O1 (centres unmarked) [GVL, -valerolactone]
Kamlet-Taft Parameters Π* [1]: 0.83
Kamlet-Taft Parameters α [1]: 0.00
Kamlet-Taft Parameters β [1]: 0.60
Flash point (Flash point): 96.1 °C

COC(C)(C)C [MTBE]
Flash point (Flash point): −28 °C

CO [Methanol, methanol]
maximum absorbance of Nile Red [2]: 550 nm

CCCCN1CCCC1=O [N-butylpyrrolidinone]
Kamlet-Taft Parameters Π* [1]: 0.77
Kamlet-Taft Parameters α [1]: 0.00
Kamlet-Taft Parameters β [1]: 0.92

O=S1(=O)CCCC1 [Sulfolane]
Kamlet-Taft Parameters Π* [1]: 0.98
Kamlet-Taft Parameters α [1]: 0.00
Kamlet-Taft Parameters β [1]: 0.39
maximum absorbance of Nile Red [2]: 545 nm

C1CCOC1 [THF, Tetrahydrofuran]
Kamlet-Abboud-Taft α [1]: 0
Kamlet-Abboud-Taft β [1]: 0.55
Kamlet-Abboud-Taft π [1]: 0.58

ClCCl [dichloromethane]
maximum absorbance of Nile Red [2]: 535.2 nm
